Measured values as given in patent US20060058966A1, “Methods and systems for guiding selection of chemotherapeutic agents” (priority 2004, published 2006).

Experiments:
Type in all cases: cell-based, human
[1] = test system: tumor of patient also suffering from ovarian cancer; assay: ATP-TCA assay of tumor samples of patient two; conditions: for Initial Therapeutic Index: indexed as for patient one
Protocol: Briefly, the ATP-TCA assay is conducted as follows. First, aseptically obtained solid tumor specimens are dispersed using, e.g. surgical scissors and scalpels. Subsequently, tissue fragments of 0.5 to 2 mm in diameter are enzymatically dissociated into a cell suspension of single cells and small aggregates by incubation for 4-18 h in 5-10 ml sterile collagenase-containing enzyme preparation such as tumor dissociation enzyme preparation, TDE. Commercially available from Atlantic Scientific, Fort Lauderdale, Fla., or from DCS Innovative Diagnostic Systeme GmbH, Hamburg, Germany. Alternatively, tissue fragments are dissociated using 1.5 mg/ml collagenase H (Sigma Chemical, St. Lewis, Mo.) or by mechanical desegregation. (see, e.g., Myatt et al., 1997, Anticancer Drugs, 8:756-762) After filtration and ficoll-hypaque density centrifugation, e.g. (Lymphoprep®, ICN Flow, Meckenheim, Germany; Histopaque, Sigma Chemical, St. Louis, Mo.), the quality and viability of resultant single cell suspensions are determined e.g., by trypan blue dye exclusion (0.2% Merck, Darmstadt, Germany) and by subsequent cytological examination. A serum-free Complete Assay medium (CAM) available from DCS Innovative Diagnostik Systeme GmbH, Hamburg, Germany is added and cell suspensions then are adjusted to a final concentration of 1-2×10^5 viable cells per ml.
Drug assays can be performed in 96-well polypropylene microtiter plates (round-bottom). Test drug concentrations (TDC) are prepared directly on the plates by serial 1:2-dilutions of the individual stock solutions. Each drug is tested by continuous exposure in triplicate at a number, e.g., six different concentrations ranging from 6.25% to 200% of test drug concentration.
Subsequently, a sample, e.g. 100 μl of single cell suspension (i.e., 10,000- 20,000 cells) is added to each well. Cultures are incubated at 37° C. and 95% humidity in a 95% air, 5% CO2 atmosphere.
After 5-7 days of incubation, another cytological analysis is performed in untreated MO controls. Subsequently, intracellular ATP is extracted and stabilized. Then 50 μl aliquots of each lysate is then transferred to a liminometer, e.g. a LB-953 liminometer (Berthold, Wildbad, Germany). ATP is measured, e.g. by the “firefly” light reaction after automatically pipetting 55 μl of Luciferin-Luciferase-Reagent (Lu-Lu) to each cell extract. Luminescence response expressed as Relative Light Units (RLU=photons/10) is counted for 10 seconds with a 4 second delay. An ATP standard curve is performed for all assays. MO should be greater than 100 pg/ml ATP. Assays showing mean RLU values of less than 20,000 (MO), a MI/MO-ratio>0.01, or evidence of microbiological contamination are regarded as non-evaluable. End assays are also sampled for pathology, proof that the final wells after treatment contain tumor not benign cells.
All ATP-TCA assays were conducted as described previously herein in detail (see also, e.g., Andreotti et al., 1995, Cancer Res. 55:5276-82; Kurbacher et al., 1996, Breast Cancer Res. Treat., 41:161-70).

[2] = test system: tumor of patient suffering from ovarian cancer; assay: ATP-TCA assay of tumor samples of patient one; conditions: for Initial Therapeutic Index: tumor response curves ranked by AUC-1, high index = more effective
Protocol: Briefly, the ATP-TCA assay is conducted as follows. First, aseptically obtained solid tumor specimens are dispersed using, e.g. surgical scissors and scalpels. Subsequently, tissue fragments of 0.5 to 2 mm in diameter are enzymatically dissociated into a cell suspension of single cells and small aggregates by incubation for 4-18 h in 5-10 ml sterile collagenase-containing enzyme preparation such as tumor dissociation enzyme preparation, TDE. Commercially available from Atlantic Scientific, Fort Lauderdale, Fla., or from DCS Innovative Diagnostic Systeme GmbH, Hamburg, Germany. Alternatively, tissue fragments are dissociated using 1.5 mg/ml collagenase H (Sigma Chemical, St. Lewis, Mo.) or by mechanical desegregation. (see, […] al., 1997, Anticancer Drugs, 8:756-762) After filtration and ficoll-hypaque density centrifugation, e.g. (Lymphoprep®, ICN Flow, […], Germany; Histopaque, Sigma Chemical, St. […] A serum-free Complete Assay medium (CAM) available from DCS Innovative Diagnostik Systeme GmbH, Hamburg, Germany is added and cell suspensions then are adjusted to a final concentration of 1-2×10^5 viable cells per ml. […] Test drug concentrations (TDC) are prepared directly on the plates by serial 1:2-dilutions of the individual stock solutions. […] Appropriate controls, e.g., one with CAM, i.e., no inhibition control, (MO) and the other with Maximum ATP Inhibitor (MI) instead of the cytostatics, can be used in six wells of every culture plate. Subsequently, a sample, e.g. 100 μl of single cell suspension (i.e., 10,000- 20,000 cells) is added to each well. Cultures are incubated at 37° C. and 95% humidity in a 95% air, 5% CO2 atmosphere. After 5-7 days of incubation, another cytological analysis is performed in untreated MO controls. Subsequently, intracellular ATP is extracted and stabilized. Then 50 μl aliquots of each lysate is then transferred to a liminometer, e.g. a LB-953 liminometer (Berthold, Wildbad, Germany). ATP is measured, e.g. by the “firefly” light reaction after automatically pipetting 55 μl of Luciferin-Luciferase-Reagent (Lu-Lu) to each cell extract. Luminescence response expressed as Relative Light Units (RLU=photons/10) is counted for 10 seconds with a 4 second delay. An ATP standard curve is performed for all assays. […] End assays are also sampled for pathology, proof that the final wells after treatment contain tumor not benign cells. The following illustrates assignment of a Preliminary Rank or Order to a drug(s) or agent(s) based on the results of ATP-TCA assays of patient tumors presented in representative FIGS. 4A-C. All ATP-TCA assays were conducted as described previously herein in detail (see also, e.g., Andreotti et al., 1995, Cancer Res. 55:5276-82; Kurbacher et al., 1996, Breast Cancer Res. Treat., 41:161-70). FIG. 4A illustrates assay results were obtained with samples of a tumor of patient […] suffering from ovarian cancer. The results of an ATP-TCA assay are graphically presented (FIG. 4A) as a plot of (TDC) Test Drug Concentration (%) versus Tumor Growth Inhibition (%) (i.e., ATP test activity/ATP control×100%). (Carboplatin is abbreviated in FIGS. 4A-B as CBDCA.) The tumor response curves presented in FIG. 4A are ranked as described herein as if they were reference data. The numerical measure used is the AUC-I test. […] Alternative, the range from the least to the greatest response can be divided into 10 segments and the curves are assigned to their corresponding segments.

[3] = test system: tumor of a pancreatic cancer patient; assay: ATP-TCA assay of tumor samples of a pancreatic cancer patient; conditions: pancreatic cancer sample
Protocol: Briefly, the ATP-TCA assay is conducted as follows. First, aseptically obtained solid tumor specimens are dispersed using, e.g. surgical scissors and scalpels. Subsequently, tissue fragments of 0.5 to 2 mm in diameter are enzymatically dissociated into a cell suspension of single cells and small aggregates by incubation for 4-18 h in 5-10 ml sterile collagenase-containing enzyme preparation such as tumor dissociation enzyme preparation, TDE. Commercially available from Atlantic Scientific, Fort Lauderdale, Fla., or from DCS Innovative Diagnostic Systeme GmbH, Hamburg, Germany. Alternatively, tissue fragments are dissociated using 1.5 mg/ml collagenase H (Sigma Chemical, St. Lewis, Mo.) or by mechanical desegregation. […] A serum-free Complete Assay medium (CAM) available from DCS Innovative Diagnostik Systeme GmbH, Hamburg, Germany is added and cell suspensions then are adjusted to a final concentration of 1-2×10^5 viable cells per ml. […] Test drug concentrations (TDC) are prepared directly on the plates by serial 1:2-dilutions of the individual stock solutions. […] Subsequently, a sample, e.g. 100 μl of single cell suspension (i.e., 10,000- 20,000 cells) is added to each well. Cultures are incubated at 37° C. and 95% humidity in a 95% air, 5% CO2 atmosphere. After 5-7 days of incubation, another cytological analysis is performed in untreated MO controls. Subsequently, intracellular ATP is extracted and stabilized. Then 50 μl aliquots of each lysate is then transferred to a liminometer, e.g. a LB-953 liminometer (Berthold, Wildbad, Germany). ATP is measured, e.g. by the “firefly” light reaction after automatically pipetting 55 μl of Luciferin-Luciferase-Reagent (Lu-Lu) to each cell extract. Luminescence response expressed as Relative Light Units (RLU=photons/10) is counted for 10 seconds with a 4 second delay. An ATP standard curve is performed for all assays. MO should be greater than 100 pg/ml ATP. […] End assays are also sampled for pathology, proof that the final wells after treatment contain tumor not benign cells. […] All ATP-TCA assays were conducted as described previously herein in detail (see also, e.g., Andreotti et al., 1995, Cancer Res. 55:5276-82; Kurbacher et al., 1996, Breast Cancer Res. Treat., 41:161-70).

SMILES: N.N.O=C([O-])C1(C(=O)[O-])CCC1.[Pt+2] [Carboplatin]
- activity against this patient's tumor [1]: at best moderately active
- Initial Therapeutic Index [1]: 5
- activity against this patient's tumor [2]: single best drug
- Initial Therapeutic Index [2]: 10

SMILES: N.N.[Cl][Pt][Cl] [DDP, cisplatin]
- Initial Therapeutic Index [3]: 2
- activity against this tumor [3]: not significantly active

SMILES: Nc1ccn([C@@H]2O[C@H](CO)[C@@H](O)C2(F)F)c(=O)n1 [Gemcitabine, gemcitabine]
- activity against this patient's tumor [1]: at best moderately active
- Initial Therapeutic Index [1]: 3
- activity against this patient's tumor [2]: not significantly active
- Initial Therapeutic Index [2]: 3
- Initial Therapeutic Index [3]: 3
- activity against this tumor [3]: not significantly active

SMILES: CC(=O)O[C@H]1C(=O)[C@@]2(C)[C@H]([C@H](OC(=O)c3ccccc3)[C@]3(O)C[C@H](OC(=O)[C@H](O)[C@@H](NC(=O)c4ccccc4)c4ccccc4)C(C)=C1C3(C)C)[C@]1(OC(C)=O)CO[C@@H]1C[C@@H]2O [Taxol, paclitaxel]
- activity against this patient's tumor [1]: single best drug
- Initial Therapeutic Index [1]: 8
- activity against this patient's tumor [2]: not significantly active
- Initial Therapeutic Index [2]: 2
